In patent US6958324B2, “Inosine compounds and their use for treating or preventing an inflamation or a reperfusion disease” (Inotek Pharmaceuticals Corporation, priority 1998, dated 2005):
Marks after values point to notes of the source that are not given here.

What was measured:
[1] = test system: DBA/1J mice; experiment: Collagen-induced arthritis: chemokine and cytokine levels in paws; assay type: in vivo; settings: 200 mg/kg/day gavage, 24 days after second collagen injection
Protocol: (§1) Mice were evaluated daily for arthritis by using a macroscopic scoring system ranging from 0-4 (0=no signs of arthritis, 1=swelling or redness of the paw or one digit, 2=two joints involved, 3=more than 2 joints involved, 4=severe arthritis of the entire paw). The arthritic index for each mouse was calculated by adding the four scores of the individual paws. […] At study termination, paws were removed from all animals in each treatment group and randomly assigned to MPO, MDA or chemokines/cytokine measurements.
The effect of 5′-IMS on the levels of the chemokine MIP-1α and the cytokines 1L-12 and TNF-α in paws of DBA/1J mice treated with subdermal injections of collagen to induce arthritis was studied. Gavage treatment with 5′-IMS (100 or 200 mg/kg/day, BID) commenced on the day of the second collagen injection and paws were taken 24 days later and homogenized for analysis. […] Data are expressed as mean ±SEM from n=10 animals. […] Accordingly, 5′-IMS, an illustrative inosine compound, is useful for treating or preventing an inflammation disease, particularly arthritis, in a patient.

[2] = test system: DBA/1J mice; experiment: Collagen-induced arthritis: incidence and severity; assay type: in vivo
Protocol: The effect of 5′-IMS in a murine model system of collagen-induced arthritis was studied. Male DBA/1J mice were injected intradermally on day 1 with 0.1 mL of an emulsion of bovine type II collagen plus complete Freunds's adjuvant (CFA). A second injection was administered on day 21. Treatment with 5′-IMS (100 or 200 mg/kg/day, BID) per gavage was begun on the day of the second collagen/CFA injection and continued throughout the study, which was terminated on day 45 (24 days after the second injection).
as §1
Arthritis was induced in DBA/1J mice by two 100 μL sub-dermal injections of a 1:1 mixture of bovine collagen type II (1 mg/mL) and complete Freund's adjuvant (1 mg/mL) 21 days apart. Gavage treatment with 5′-IMS (100 or 200 mg/kg/day, BID) commenced on the day of the second injection. […] Statistical analysis was performed by Student's t-test or fisher's exact test as appropriate. […]

[3] = test system: DSS mice; experiment: DSS colitis, inosine versus 5′-IMS at 50, 100 and 300 μmoles/kg/day; assay type: in vivo; settings: for protection against colonic shortening / protection against visible histological damage: 50, 100 and 300 μmoles/kg/day, vs vehicle treated DSS animals; for dose at which colonic MDA levels were reduced: first statement ('For example'); for dose at which MDA levels were reduced (second statement, 'Similarly'): second statement of b313
Source text: The effect of various doses (50, 100 and 300 μmoles/kg/day) inosine and IMS on the outcome of DSS (dextran sodium sulfate) colitis in mice. Colonic length, gross histologic score, colonic MDA content and colonic MPO content have been determined. N=10 animals per experimental groups. *p<0.05 and **p<0.01 indicates significant improvements in drug treated DSS animals, when compared to vehicle treated DSS animals. Mean +SEM are presented, except for histological scores, which are presented as medians.
Significant improvements in 5′-IMS treated DSS animals was observed as compared to vehicle treated DSS animals. Mean ±SEM are shown, except for the histological scores, which are presented as medians.

[4] = test system: DBA/1J mice; experiment: Collagen-induced arthritis: MPO and MDA levels in paws; assay type: in vivo; settings: 100 or 200 mg/kg/day, BID, gavage; paws 24 days after second collagen injection
Protocol: as §1
The effect of 5′-IMS on the levels of MPO and MDA in paws of DBA/1J mice treated with subdermal injections of collagen to induce arthritis was studied. Gavage treatment with 5′-IMS (100 or 200 mg/kg/day, BID) commenced on the day of the second collagen injection and paws were taken 24 days later and homogenized for MPO and MDA measurements. Data are expressed as mean ±SEM from n=10 animals. […] Accordingly, 5′-IMS, an illustrative inosine compound, is useful for treating or preventing an inflammation disease, particularly arthritis, in a patient.

[5] = test system: DSS mice; experiment: DSS-induced inflammatory bowel disease model, inosine treatment; assay type: in vivo; settings: 5% DSS 10 days, inosine 200 mg/kg/day orally
Protocol: The effect of inosine in a mouse model of inflammatory disease was examined. Inosine was administered (oral administration, 100 mg/kg, 2 times a day), in a mouse model of inflammatory bowel disease induced by dextran sulfate solution (DSS). This system is well-characterized and is considered a reliable model of inflammatory bowel disease. Efficacy of a pharmaceutical compound in this model is taken as evidence that the compound is likely to be effective in human beings (Sasaki et al., Scand. J. Immunol. 51:23-8,2000; Gaudio et al, Dig. Dis. Sci. 44:1458-75, 1999; Murthy et al., Aliment Pharmacol. Ther. 13:251-60, 1999; Kimura et al., Arzneimittelforschung 48:1091-96, 1998; Dieleman et al., Scand. J Gastroenterol. Suppl. 223:99-104, 1997).
Symptoms associated with the DSS model were induced as follows. Mice were patiented to a drinking water containing 5% DSS for 10 days, in the presence (n=10) or absence (n=10) of inosine treatment (200 mg/kg/day, orally). At the end of 10 days, animals were evaluated for the incidence of bloody diarrhea, for colon shortening, and colon histopathology. Colonic myeloperoxidase (MPO) and malondialdehyde (MDA) levels were measured. These parameters provide a good cross-section of the functional and inflammatory changes associated with the current model of inflammatory bowel disease.
Significant protective effect of inosine in the presence of DSS is indicated as *p<0.05, when compared to the values with DSS alone in the absence of inosine.

[6] = test system: male BALB/c mice; experiment: Plasma cytokine levels after LPS challenge in endotoxemic mice; assay type: in vivo; settings: 100 mg/kg i.p. 30 min before LPS 70 mg/kg i.p.
Protocol: To determine whether inosine inhibits inflammatory cytokine release in vivo, male BALB/c mice were injected with inosine (100 mg/kg; i.p.) followed 30 minutes later by an i.p. injection of LPS (70 mg/kg). Plasma levels of the different cytokines were measured at various times (90 mm 2 h, 4 h, and 8 h) after the LPS challenge.
The results are shown in FIGS. 1A-E. Data are mean ±SEM of n=8 mice. The asterisk in the figure indicates p<0.05. […] Inosine was also shown to augment IL-10 (FIG. 1E) production in endotoxemic mice. […] Inosine inhibits the production of proinflammatory cytokines, but also potentiates the formation of the anti-inflammatory IL-10. Accordingly, inosine is useful for treating or preventing an inflammation disease or a reperfusion disease.

[7] = test system: peritoneal macrophages stimulated with LPS/IFN-γ; experiment: IL-12 and TNF production by stimulated peritoneal macrophages exposed to inosine; assay type: cell-based
Protocol: To determine the effect of inosine on inflammatory cytokine production, stimulated macrophages were exposed to inosine at 0 to 1000 μM, after which production of cytokines IL-12 and TNF was measured.

[8] = test system: STZ diabetic mice; experiment: Streptozotocin-induced diabetes: blood glucose, diabetes incidence, pancreatic insulin content; assay type: in vivo
Protocol: The effect of inosine was in a […] model of streptozotocin-induced diabetes was examined. Mice were treated with streptozotocin (40 mg/kg in citrate buffer) or vehicle (citrate buffer) i.p. for 5 consecutive days to induce diabetes. Blood glucose was monitored over the following 21 days using a one-touch blood glucose meter (Lifescan). […] Hyperglycemia was defined as non-fasting blood glucose level higher than 200 mg/dL. Mice were treated simultaneously with streptozotocin injection throughout the 21 days of the experiments and with vehicle or inosine (100 mg/kg oral gavage, twice a day). Samples of pancreas were removed on day 21 and weighed before being placed into 6 mls of acid ethanol (23:7:0.45 ethanol:dH2O:HCl) and homogenized. The pancreas samples were incubated for 72 h at 4° C. before being centrifuged. The insulin content of the supernatant was then determined using an ELISA assay.
An “*” indicates significant reduction of circulating glucose or diabetes incidence in the inosine-treated streptozotocin rats when compared to vehicle-treated streptozotocin rats (p<0.05).
An “*” in TABLE 7 indicates significant decreases in insulin content in response to streptozotocin when compared to control, and a “#” indicates significant preservation of pancreatic insulin content in the inosine-treated streptozotocin rats (p<0.05). Pancreatic insulin content at 21 days in streptozotocin diabetic mice receiving vehicle or inosine treatment.

[9] = test system: BALB/c mice; experiment: LPS-induced lethality (survival) in mice; assay type: in vivo; settings: 100 mg/kg 30 min before 70 mg/kg i.p. LPS; 24-96 h; p<0.05 vs vehicle
Protocol: Because inosine skewed the cytokine response towards an anti-inflammatory profile, the ability of inosine to decrease LPS-induced lethality in a murine model system was investigated. BALB/c mice were pretreated with drug vehicle (physiologic saline) or 100 mg/kg inosine 30 min before the injection of 70 mg/kg of i.p. LPS. Survival was recorded at 24, 48, 72, and 96 h after the LPS injection. Results from the summary of two different experiments are shown. N=16 animals in each group. Inosine improved survival rate at 24-96 h (p<0.05). Therefore, inosine conferred significant protection in this endotoxemic model. Thus, inosine is useful for treating or preventing an inflammation disease or a reperfusion disease.

[10] = day 0, inosine 100 mg/kg oral gavage twice a day

Question: What does the source list for `O=S(=O)(O)OC[C@H]1O[C@@H](n2cnc3c(O)ncnc32)[C@H](O)[C@@H]1O` [5′-IMS, inosine 5′-monosulfate]?
Answer: levels of MIP-1α in paws [1]: significantly reduced; levels of TNF-α in paws [1]: significantly reduced; IL-12 levels in paws ([1]; p=0.09): tended to reduce; severity of arthritis ([2]; 100 or 200 mg/kg/day, BID, gavage): significantly reduced; prevalence of arthritis ([2]; both dosing regimens (100 or 200 mg/kg/day, BID, gavage), day 24 post second collagen injection, reduced from 90%): 25%; protection against colonic shortening [3]: provided significant protection; protection against visible histological damage [3]: provided significant protection; dose at which colonic MDA levels were reduced [3]: 50 µmol/kg/day; dose at which MDA levels were reduced (second statement, 'Similarly') [3]: 50 µmol/kg/day; lipid peroxidation (reflected by MDA) in joints [4]: profoundly reduced; neutrophil infiltration (reflected by MPO concentration) in joints [4]: profoundly reduced

Question: What does the source list for `OC[C@H]1O[C@@H](n2cnc3c(O)ncnc32)[C@H](O)[C@@H]1O` [Inosine, inosine]?
Answer: Gut histological damage (1-4 scale) ([5]; DSS alone 3.6 ± 0.4): 1.2 ± 0.4*; Gut malondialdehyde levels ([5]; DSS alone 3.7 ± 0.8): 2.1 ± 0.5* nmol/mg protein; Colonic length ([5]; DSS alone 4.2 ± 0.1, in cm (unit assumed)): 5.1 ± 0.1*; Weight loss of the animals at 10 days ([5]; DSS alone 20 ± 2): 13 ± 1* %; Incidence of rectal bleeding ([5]; DSS alone 90): 20* %; Gut myeloperoxidase levels ([5]; DSS alone 296 ± 87): 88 ± 14* nU/mg protein; production of TNF-α (plasma) ([6]; FIG. 1A): suppress; production of IL-12 (plasma) ([6]; FIG. 1B): suppress; production of IFN-γ (plasma) ([6]; FIG. 1C): suppress; production of MIP-1α (plasma) ([6]; FIG. 1D): suppress; IL-10 production (plasma) ([6]; FIG. 1E): augment; IL-12 ([7]; Inosine 10 μM, control 6.84 ± 0.39): 5.9 ± 0.19 ng/mL; TNF ([7]; Inosine 10 μM, control […] ± 1.89): 10.08 ± 1.3 ng/mL; IL-12 ([7]; Inosine 30 μM): 5.1 ± 0.14 ng/mL; TNF ([7]; Inosine 30 μM): 8.38 ± 0.14 ng/mL; IL-12 ([7]; Inosine 100 μM): 4.46 ± 0.62 ng/mL; TNF ([7]; Inosine 100 μM): 7.61 ± 0.33 ng/mL; IL-12 ([7]; Inosine 300 μM): 4.94 ± 0.06 ng/mL; TNF ([7]; Inosine 300 μM): 5.45 ± 0.52 ng/mL; IL-12 ([7]; Inosine 1000 μM): 4.34 ± 0.39 ng/mL; TNF ([7]; Inosine 1000 μM): 5.62 ± 0.88 ng/mL; Pancreatic insulin content ([8]; 21 days, inosine treated, STZ vehicle 6 ± 1, control 68 ± 11): 21 ± 4# ng insulin/mg protein; Diabetes Incidence [8, 10]: 0%; Mean Blood Glucose [8, 10]: 95 ± 4 mg/dL; Median Blood Glucose [8, 10]: 96 mg/dL; Diabetes Incidence ([8]; day 7, inosine 100 mg/kg oral gavage twice a day, STZ vehicle 8): 0%; Mean Blood Glucose ([8]; day 7, inosine 100 mg/kg oral gavage twice a day, STZ vehicle 137 ± 7): 112 ± 6* mg/dl; Median Blood Glucose ([8]; day 7, inosine 100 mg/kg oral gavage twice a day, STZ vehicle 146): 117* mg/dl; Diabetes Incidence ([8]; day 21, inosine 100 mg/kg oral gavage twice a day, STZ vehicle 67): 25* %; Mean Blood Glucose ([8]; day 21, inosine 100 mg/kg oral gavage twice a day, STZ vehicle 231 ± 15): 152 ± 20* mg/dl; Median Blood Glucose ([8]; day 21, inosine 100 mg/kg oral gavage twice a day, STZ vehicle 260): 130* mg/dl; survival rate [9]: improved; protection against colonic shortening [3]: not; protection against visible histological damage [3]: not; dose at which colonic MDA levels were reduced [3]: 100 µmol/kg/day; dose at which MDA levels were reduced (second statement, 'Similarly') [3]: 300 µmol/kg/day
